Experimental data published in US12590340B2, “Microfluidic plasmonic color reading chips and methods” (priority 2021, dated 2026).
Converted amounts (≈) assume the structure as drawn. “Also recorded” adds a separate entry of the source. Read-outs that look alike come from different tables or passages of the source.

Experiments:
Amp. Resistant E. coli [1] = assay: antibiotic susceptibility study in spiked human urine on the chip; assay type: cell-based, Escherichia coli
Experimental: For the spiked human sample experiment, human urine was centrifuged at 5000 rcf for 5 minutes to remove large particles. It was subsequently spiked with 5×10^5 CFU/mL and mixed with a solution of resazurin to a final concentration of 0.02%. No antibiotics were added for the control aliquots, 100 μg/mL ampicillin was added for resistant aliquots and 50 μg/mL Kanamycin was added for susceptible aliquots. The aliquots were incubated at 37° C. different periods starting from 0 minutes incubation till 60 minutes with a time step of 5 minutes.
FIGS. 11A-11F show the results of an antibiotic susceptibility study conducted using human urine spiked with Amp. Resistant E. coli to a final concentration of 5×10^5 CFU/mL. The study utilized 3 aliquot sets of control (no antibiotic), resistant (100 μg/mL Ampicillin), and susceptible (50 μg/mL Kanamycin). […] The trend is highlighted with a white arrow on the 2D chromaticity diagram in FIG. 11B. […] are web plots of the red, green, and blue values analyzed from the bright-field microscopy of the sets. […] Green values increased overtime in the control and resistant sets (88 to 122 for resistant and 82 to 117 for control) showing the change towards green color and indicating the reduction of resazurin to resorufin by viable bacterial cells. […] Resistant E. coli.

[2] = test system: Ampicillin resistant Escherichia coli strain; assay: antibiotic susceptibility profiling by resazurin color change on the plasmonic microfluidic chip; assay type: cell-based; details: for constant green value throughout the 1-hour incubation: 50 μg/mL kanamycin; for increase in green value of the 1-hour incubated aliquots compared to the zero minute incubation aliquot: 100 μg/mL ampicillin, 37° C.
Experimental: Ampicillin resistant Escherichia coli strain (Amp resistant E. coli, #211540, Merlan scientific, Ontario, Canada) was cultured overnight at 37° C. in Luria broth (LB) media supplemented with 100 μg/mL Ampicillin (#216858, Merlan scientific, Ontario, Canada). Next, the bacterial concentration was determined by optical density technique using a Spectronic 21D spectrophotometer. Subsequently, aliquots of different concentrations were prepared for the antibiotic susceptibility testing experiments.
(§1) Resistant E. coli, MRSA, and Cipro. Resistant PA respectively was used. The aliquots were incubated at 37° C. for different periods of time starting from 0 minutes incubation to a 60 minutes with a time step of 5 minutes. For susceptible bacterial samples, aliquots of Amp resistant E. coli were prepared (5×10^5 CFU/mL, 10^3 CFU/mL, 10^2 CFU/mL, and 50 CFU/mL), MRSA (5×10^5 CFU/mL), and Cipro. Resistant PA (5×10^5 CFU/mL). […] Resistant E. coli, MRSA, and Cipro. Resistant PA respectively was used. The aliquots were incubated at 37° C. different periods starting from 0 minutes incubation till 60 minutes with a time step of 5 minutes.
(§2) To rapidly detect the sample color change on the platform the reflectance spectra was measured using a Lambda 750 UV/Vis/NIR Spectrophotometer (PerkinElmer). The incident and collected light beams had normal incidence to the platform. Further, optical imaging was performed under highly controlled environment using Nikon Eclipse LV150 (Nikon) with a ×100, 0.9 NA air objective and Nikon digital sight ds-fi1 CCD camera with a white reference of R:0.75 G:1.0 B:2.36.51.
(§3) The microfluidic chip used was similar to that illustrated in FIG. 1B, having two characteristic chambers 1) antibiotic infusing chamber (AI) 103 equipped with bacteria entrapping micropillars 104p; and 2) plasmonic color-sensitive chamber (PCS) 105. The operational procedure of the microfluidic chip was to inject the bacteria containing growth media along with an antibiotic of interest and 0.02% resazurin solution from the inlet to get mixed in the Al mixing and entrapment chamber. Microfluidic chips were incubated for one hour through time intervals of 5 minutes. After incubation, the liquid in the Al chamber 103 was pushed towards the PCS chamber 105 sensing chamber while the bacteria was entrapped behind the micropillars 104p.
To conveniently convert the microscopy results to the feasible CIE color gamut, each picture of the data set loaded to MATLAB was read as a 3 layer matrix, each pixel has 3 components, one per layer, corresponding to its R, G and B value. The processing involved image crop and a sample selection. A simple average calculation was run individually to get an overall value for R, G and B components for each of the 5 samples generated. Following that, the mean across the collection was calculated. The error bar was computed at 1 standard deviation.
All images were processed and analyzed through a MATLAB™ script which allowed the analysis of multiple images simultaneously. The TIFF files were loaded and cropped to 80% of their original dimensions to avoid the coffee-ring effect. An option for the manual crop was also available. For each image, five samples of 480×480 pixels were randomly selected. Subsequently, for each the R, G and B values were averaged followed by the calculation of the mean RGB value and error across them. Succeeding their conversion to XYZ and x, y color systems. The RGB values of each image with its corresponding error bar were plotted against time. Additionally, the x and y values were scattered on the CIE1931 color space to analyze the color change through time.

Amp resistant E. coli = assay: minimum inhibitory concentration (MIC) study with resazurin on the chip; details: for y-value: 60 minutes, 5×10^5 CFU/mL
Cipro. Resistant PA [3] = assay: antibiotic susceptibility profiling by resazurin color change on the plasmonic microfluidic chip; assay type: cell-based, Pseudomonas aeruginosa; details: 5×10^5 CFU/mL; 2 ug/mL Ciprofloxacin, 4 ug/mL Gentamicin
Experimental: as §1
To rapidly detect the sample color change on the platform the reflectance spectra was measured using a Lambda 750 UV/Vis/NIR Spectrophotometer (PerkinElmer). The incident and collected light beams had normal incidence to the platform. […]
(§4) To conveniently convert the microscopy results to the feasible CIE color gamut, each picture of the data set loaded to MATLAB was read as a 3 layer matrix, each pixel has 3 components, one per layer, corresponding to its R, G and B value. […] Following that, the mean across the collection was calculated. […]
(§5) All images were processed and analyzed through a MATLAB™ script which allowed the analysis of multiple images simultaneously. […]

MRSA [4] = assay: as above; assay type: cell-based, Staphylococcus aureus; details: 4 ug/mL Oxacillin, 5×10^5 CFU/mL; for color response over 1-hour incubation (resistant / susceptible): 1 ug/mL Ciprofloxacin
Experimental: as §1, §2
The microfluidic chip used was similar to that illustrated in FIG. 1B, having two characteristic chambers 1) antibiotic infusing chamber (AI) 103 equipped with bacteria entrapping micropillars 104p; and 2) plasmonic color-sensitive chamber (PCS) 105. The operational procedure of the microfluidic chip was to inject the bacteria containing growth media along with an antibiotic of interest and 0.02% resazurin solution from the inlet to get mixed in the Al mixing and entrapment chamber. Microfluidic chips were incubated for one hour through time intervals of 5 minutes. […]
as §4, §5

MRSA [5] = assay: standard MIC assay using CLSI protocols; assay type: cell-based, Staphylococcus aureus; details: 96 well plate, overnight culture; 5×10^5 CFU/mL
Experimental: For the Clinical & Laboratory Standards Institute (CLSI) MIC protocol bacteria were streaked on LB agar overnight and resuspended in water aliquot. The aliquot was measured, and the bacteria concentration was adjusted to 10^6 CFU/mL in LB media. A 96 well plate with an antibiotic gradient from 128 μg/ml to 0.125 μg/ml in a 2-fold concentration dilution step was prepared with a positive control with no antibiotics. Next, the bacteria were introduced to each well of the 96 well plate for a final bacteria concentration of 5×10^5 CFU/mL. The well plates were cultured overnight.

MRSA [6] = assay: minimum inhibitory concentration (MIC) study with resazurin on the chip; details: for y-value: 60 minutes, 5×10^5 CFU/mL
Cipro. Resistant PA [7] = details: 60 minutes, 5×10^5 CFU/mL
From the text: as §3

Amp. Resistant E. coli [8] = assay: antibiotic susceptibility study in spiked whole blood on the chip; assay type: cell-based, Escherichia coli; details: 100, 50, 20 CFU/mL, 32 μg/mL Ampicilin, up to 150 minutes
Experimental: For the spiked human sample experiment, human whole blood was centrifuged in two steps first at 150 rcf for 10 minutes followed by 7000 rcf for 3 min. It was subsequently spiked with 100, 50 or 20 CFU/mL and mixed with a solution of resazurin to a final concentration of 0.01%. No antibiotics were added for the control aliquots, 32 μg/mL ampicillin was added for resistant aliquots and 16 μg/mL kanamycin was added for susceptible aliquots. The aliquots were incubated at 37° C. different periods starting from 0 minutes incubation till 150 minutes with a time step of 5 minutes.
FIGS. 12A-12B show the results of an antibiotic susceptibility study conducted using whole blood spiked with Amp. Resistant E. coli to a final concentration of 100, 50, 20 CFU/mL in the presence of 32 μg/mL Ampicilin. […] The mean Gvalue/Bvalue (a) can be a credible parameter to follow the sequence in the color change and translate it to a quantifiable data FIG. 12B. […] Quantifiably, the time in which the α-value undergoes a step levitation is corresponding to the time the color transition is visible to the naked eye.

[9] = 5×10^5 CFU/mL, 100 μg/mL Ampicillin, 50 μg/mL Kanamycin

Molecule: NC[C@H]1O[C@H](O[C@H]2[C@H](O)[C@@H](O[C@H]3O[C@H](CO)[C@@H](O)[C@H](N)[C@H]3O)[C@H](N)C[C@@H]2N)[C@H](O)[C@@H](O)[C@@H]1O [Kanamycin]
- constant blue value throughout the 1-hour incubation (Amp. Resistant E. coli [1]; 50 μg/mL Kanamycin): 138.7±5.3
- constant green value throughout the 1-hour incubation (Amp. Resistant E. coli [1]; 50 μg/mL Kanamycin): 76.8±4.5
- constant red value throughout the 1-hour incubation (Amp. Resistant E. coli [1]; 50 μg/mL Kanamycin): 56.6±4.7
- y-value, constant (susceptible set) (Amp. Resistant E. coli [1]; 50 μg/mL Kanamycin, 5×10^5 CFU/mL, 1-hour incubation): 0.205±0.025
- constant green value throughout the 1-hour incubation ([2]; 5×10^5 CFU/mL): 49.26±5.32
- constant green value throughout the 1-hour incubation ([2]; 10^2 CFU/mL): 47.28±1.93
- constant green value throughout the 1-hour incubation ([2]; 10^3 CFU/mL): 48.12±3.21
- constant green value throughout the 1-hour incubation ([2]; 50 CFU/mL): 46.15±2.56
- y-value (Amp resistant E. coli; 4 μg/mL kanamycin): 0.3
- y-value (Amp resistant E. coli; 8 μg/mL kanamycin): 0.125
- y-value (Amp resistant E. coli; 16 μg/mL kanamycin): 0.175
- MIC (Amp resistant E. coli; Escherichia coli, 1 h, read-out: minimum inhibitory concentration (MIC)): 8 µg/mL (≈ 16.5 µM)

Molecule: Gentamicin
- color response over 1-hour incubation (resistant / susceptible) (Cipro. Resistant PA [3]): constant dark blue color; also recorded: susceptible

Molecule: Cc1onc(-c2ccccc2)c1C(=O)N[C@@H]1C(=O)N2[C@@H]1SC(C)(C)[C@@H]2C(=O)O [Oxacillin]
- increase of y values (2D chromaticity diagram) over 1-hour incubation, control and resistant aliquots (MRSA [4]): 0.16 to 0.33
- color response over 1-hour incubation (resistant / susceptible) (MRSA [4]): color change from initial dark blue to green; also recorded: resistant
- MIC by standard MIC assay using CLSI protocols, compared with chip MIC (MRSA [5]): confirmed the obtained MIC
- inhibition of MRSA metabolism (color change from purple to cyan) (MRSA [6]; 16 μg/mL Oxacillin dose): not enough to fully inhibit
- y-value (MRSA [6]; 16 μg/mL Oxacillin): 0.3
- y-value (MRSA [6]; 32 μg/mL Oxacillin): 0.125
- y-value (MRSA [6]; 64 μg/mL Oxacillin): 0.13
- MIC (MRSA [6]; Staphylococcus aureus, MRSA, 1 h, read-out: minimum inhibitory concentration (MIC)): 32 µg/mL (≈ 79.7 µM)
- category according to the CLSI breakpoints (MRSA [6]; from MIC): resistant

Molecule: O=C(O)c1cn(C2CC2)c2cc(N3CCNCC3)c(F)cc2c1=O [Ciprofloxacin]
- color response over 1-hour incubation (resistant / susceptible) (Cipro. Resistant PA [3]): color change from initial dark blue to green; also recorded: resistant
- color response over 1-hour incubation (resistant / susceptible) (MRSA [4]): constant dark blue color; also recorded: susceptible
- y-value (Cipro. Resistant PA [7]; 8 μg/mL Ciprofloxacin): 0.38
- y-value (Cipro. Resistant PA [7]; 16 μg/mL Ciprofloxacin): 0.125
- y-value (Cipro. Resistant PA [7]; 32 μg/mL Ciprofloxacin): 0.175

Molecule: CC1(C)S[C@@H]2[C@H](NC(=O)[C@H](N)c3ccccc3)C(=O)N2[C@H]1C(=O)O [Ampicillin]
- color response (Amp. Resistant E. coli [8]): color change trend from dark blue at zero-minute incubation towards cyan
- increase of green values over time (resistant set) (Amp. Resistant E. coli [1]; 100 μg/mL Ampicillin, 1-hour incubation): 88 to 122
- increase in the y-value over time (resistant aliquots) (Amp. Resistant E. coli [1]; 100 μg/mL Ampicillin, 5×10^5 CFU/mL, 1-hour incubation): 0.22 to 0.34
- color response over 1-hour incubation (Amp. Resistant E. coli [1]; [9]): color change trend from dark blue at zero-minute incubation towards cyan; also recorded: color-change from navy blue to green
- increase of y values (2D chromaticity diagram) over 1-hour incubation, control and resistant aliquots ([2]; 100 μg/mL Ampicillin, 5×10^5 CFU/mL): 0.19 to 0.33
- increase in green value of the 1-hour incubated aliquots compared to the zero minute incubation aliquot ([2]; 5×10^5 CFU/mL): 194%
- increase in green value of the 1-hour incubated aliquots compared to the zero minute incubation aliquot ([2]; 10^2 CFU/mL): 142%
- increase in green value of the 1-hour incubated aliquots compared to the zero minute incubation aliquot ([2]; 10^3 CFU/mL): 140%
- increase in green value of the 1-hour incubated aliquots compared to the zero minute incubation aliquot ([2]; 50 CFU/mL): 131%
- color response over 1-hour incubation (resistant / susceptible) [2, 9]: color change from initial dark blue to green; also recorded: color-change from navy blue to green
